Source: ChEMBL document CHEMBL1144945, “Development of progesterone receptor antagonists from 1,2-dihydrochromeno[3,4-f]quinoline agonist pharmacophore” (Bioorg Med Chem Lett, 2003)
Values belong to the compound of their own block, whether it stands above or below them. Calls of active or inactive are those of the source.

Legend:
[1] = biological target: T1, Progesterone receptor (Homo sapiens) (UniProt P06401); experiment: Agonist efficacy for human progesterone receptor in T47D human breast cancer cell; not active (<20% efficacy and/or >10 mM potency); assay type: functional, cell-based
T1 sequence (whole entry): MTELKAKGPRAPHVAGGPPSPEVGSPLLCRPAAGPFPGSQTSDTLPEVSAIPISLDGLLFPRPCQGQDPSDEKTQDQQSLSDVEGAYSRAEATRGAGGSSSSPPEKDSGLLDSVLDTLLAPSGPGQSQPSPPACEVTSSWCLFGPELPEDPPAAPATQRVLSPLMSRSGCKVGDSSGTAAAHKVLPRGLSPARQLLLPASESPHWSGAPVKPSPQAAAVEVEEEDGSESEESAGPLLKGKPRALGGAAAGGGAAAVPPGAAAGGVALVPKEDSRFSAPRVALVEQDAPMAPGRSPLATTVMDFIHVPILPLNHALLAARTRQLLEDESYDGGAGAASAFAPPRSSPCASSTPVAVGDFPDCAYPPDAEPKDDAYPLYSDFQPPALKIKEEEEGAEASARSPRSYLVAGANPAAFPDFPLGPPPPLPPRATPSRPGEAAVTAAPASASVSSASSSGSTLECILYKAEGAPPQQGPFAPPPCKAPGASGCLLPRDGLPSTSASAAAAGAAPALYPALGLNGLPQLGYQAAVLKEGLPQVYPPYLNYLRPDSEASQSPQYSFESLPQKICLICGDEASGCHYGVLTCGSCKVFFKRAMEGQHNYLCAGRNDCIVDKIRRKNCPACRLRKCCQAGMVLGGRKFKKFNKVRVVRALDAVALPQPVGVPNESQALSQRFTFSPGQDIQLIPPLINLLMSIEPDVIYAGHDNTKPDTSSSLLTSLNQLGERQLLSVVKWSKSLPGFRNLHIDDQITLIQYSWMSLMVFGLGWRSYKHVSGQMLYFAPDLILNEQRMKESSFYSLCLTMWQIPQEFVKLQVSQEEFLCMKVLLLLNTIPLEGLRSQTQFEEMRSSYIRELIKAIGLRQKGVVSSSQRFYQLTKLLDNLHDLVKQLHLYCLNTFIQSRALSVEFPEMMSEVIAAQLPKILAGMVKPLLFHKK

Progesterone receptor [2] = biological target: T2, Progesterone receptor (Homo sapiens, UniProt P06401); experiment: Effective concentration for human progesterone receptor in T47D human breast cancer cell; not active (<20% efficacy and/or >10 mM potency); conditions: cancer cell lines
T2 sequence (P06401 whole entry): T1 sequence (whole entry)

Progesterone receptor [3] = biological target: T2, Progesterone receptor
Description: Antagonistic activity at human progesterone receptor in CV-1 cells.

Progesterone receptor [4] = biological target: T2, Progesterone receptor; remark: listed apart in the source
Description: Binding affinity at human progesterone receptor.

Progesterone receptor [5] = biological target: T2, Progesterone receptor; remark: listed apart in the source
Description: Inhibition of human progesterone receptor activation in T47D human breast cancer cell.

[6] = biological target: T1, Progesterone receptor (Homo sapiens); experiment: Effective concentration against human progesterone receptor in T47D human breast cancer cell; not active (<20% efficacy and/or >10 mM potency); assay type: cell-based; conditions: Cancer cell lines
Progesterone receptor [7] = biological target: T2, Progesterone receptor; remark: listed apart in the source
Glucocorticoid receptor [8] = biological target: T3, Glucocorticoid receptor (Homo sapiens, UniProt P04150); experiment: Inhibition of antagonist activity towards glucocorticoid receptor; assay type: functional
T3 sequence (P04150 whole entry): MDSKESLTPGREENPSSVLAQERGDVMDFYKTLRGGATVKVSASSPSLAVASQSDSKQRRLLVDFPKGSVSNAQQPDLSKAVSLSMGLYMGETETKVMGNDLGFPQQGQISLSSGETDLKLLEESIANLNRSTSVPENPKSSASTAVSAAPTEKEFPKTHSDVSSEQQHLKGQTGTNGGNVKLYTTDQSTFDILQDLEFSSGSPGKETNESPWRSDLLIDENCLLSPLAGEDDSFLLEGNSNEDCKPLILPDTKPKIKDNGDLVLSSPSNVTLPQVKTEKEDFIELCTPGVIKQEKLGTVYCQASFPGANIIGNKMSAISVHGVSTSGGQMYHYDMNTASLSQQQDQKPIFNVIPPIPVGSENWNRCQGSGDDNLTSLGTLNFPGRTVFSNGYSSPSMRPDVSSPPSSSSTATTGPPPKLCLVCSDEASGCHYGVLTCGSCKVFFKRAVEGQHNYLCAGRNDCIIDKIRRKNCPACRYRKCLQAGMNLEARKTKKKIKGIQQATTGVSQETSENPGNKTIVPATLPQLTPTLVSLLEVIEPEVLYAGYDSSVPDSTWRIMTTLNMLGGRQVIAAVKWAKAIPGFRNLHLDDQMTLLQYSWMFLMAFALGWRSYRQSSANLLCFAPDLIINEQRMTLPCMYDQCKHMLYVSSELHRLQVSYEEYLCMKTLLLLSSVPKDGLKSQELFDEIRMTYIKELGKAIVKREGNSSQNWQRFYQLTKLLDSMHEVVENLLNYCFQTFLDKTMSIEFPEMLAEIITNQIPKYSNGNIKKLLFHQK

[9] = biological target: Estrogen receptor (Homo sapiens) (UniProt Q92731+P03372); experiment: Antagonist efficacy for Estrogen receptor; Not active; assay type: functional
[10] = biological target: T4, Mineralocorticoid receptor (Homo sapiens, UniProt P08235); experiment: Inhibition of antagonist activity towards mineralocorticoid receptor (hMR); Not active; assay type: functional
T4 sequence (P08235 whole entry): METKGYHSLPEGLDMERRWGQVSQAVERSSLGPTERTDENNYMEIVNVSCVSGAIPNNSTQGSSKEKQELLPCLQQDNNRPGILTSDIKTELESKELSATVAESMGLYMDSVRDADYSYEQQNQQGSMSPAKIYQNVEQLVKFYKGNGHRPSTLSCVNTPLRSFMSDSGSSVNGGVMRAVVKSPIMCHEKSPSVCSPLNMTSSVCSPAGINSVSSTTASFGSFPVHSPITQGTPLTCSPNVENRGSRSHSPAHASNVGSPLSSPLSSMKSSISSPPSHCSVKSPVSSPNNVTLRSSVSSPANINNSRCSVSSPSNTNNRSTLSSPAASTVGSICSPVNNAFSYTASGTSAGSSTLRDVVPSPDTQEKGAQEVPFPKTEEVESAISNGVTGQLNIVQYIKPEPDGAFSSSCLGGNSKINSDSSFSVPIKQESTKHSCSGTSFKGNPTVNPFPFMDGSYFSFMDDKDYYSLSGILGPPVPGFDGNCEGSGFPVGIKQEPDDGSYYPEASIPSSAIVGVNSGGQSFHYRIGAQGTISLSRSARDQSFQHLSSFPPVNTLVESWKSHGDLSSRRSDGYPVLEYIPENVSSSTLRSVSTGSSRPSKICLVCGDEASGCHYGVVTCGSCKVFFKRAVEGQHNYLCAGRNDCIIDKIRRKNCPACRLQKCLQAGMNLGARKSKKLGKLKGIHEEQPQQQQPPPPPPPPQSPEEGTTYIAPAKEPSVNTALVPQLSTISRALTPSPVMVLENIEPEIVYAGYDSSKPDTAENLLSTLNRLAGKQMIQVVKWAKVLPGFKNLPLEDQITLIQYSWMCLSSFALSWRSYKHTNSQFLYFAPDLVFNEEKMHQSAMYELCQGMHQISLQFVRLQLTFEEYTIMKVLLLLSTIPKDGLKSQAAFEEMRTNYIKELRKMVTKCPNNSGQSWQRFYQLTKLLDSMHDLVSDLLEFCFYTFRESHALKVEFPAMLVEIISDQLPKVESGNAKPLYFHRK

[11] = biological target: T5, Mineralocorticoid receptor (Homo sapiens) (UniProt P08235); experiment: Antagonist efficacy for mineralocorticoid receptor (hMR); Not active; assay type: functional
T5 sequence (whole entry): T4 sequence (P08235 whole entry)

Androgen receptor = biological target: T6, Androgen receptor (Homo sapiens, UniProt P10275)
T6 sequence (P10275 whole entry): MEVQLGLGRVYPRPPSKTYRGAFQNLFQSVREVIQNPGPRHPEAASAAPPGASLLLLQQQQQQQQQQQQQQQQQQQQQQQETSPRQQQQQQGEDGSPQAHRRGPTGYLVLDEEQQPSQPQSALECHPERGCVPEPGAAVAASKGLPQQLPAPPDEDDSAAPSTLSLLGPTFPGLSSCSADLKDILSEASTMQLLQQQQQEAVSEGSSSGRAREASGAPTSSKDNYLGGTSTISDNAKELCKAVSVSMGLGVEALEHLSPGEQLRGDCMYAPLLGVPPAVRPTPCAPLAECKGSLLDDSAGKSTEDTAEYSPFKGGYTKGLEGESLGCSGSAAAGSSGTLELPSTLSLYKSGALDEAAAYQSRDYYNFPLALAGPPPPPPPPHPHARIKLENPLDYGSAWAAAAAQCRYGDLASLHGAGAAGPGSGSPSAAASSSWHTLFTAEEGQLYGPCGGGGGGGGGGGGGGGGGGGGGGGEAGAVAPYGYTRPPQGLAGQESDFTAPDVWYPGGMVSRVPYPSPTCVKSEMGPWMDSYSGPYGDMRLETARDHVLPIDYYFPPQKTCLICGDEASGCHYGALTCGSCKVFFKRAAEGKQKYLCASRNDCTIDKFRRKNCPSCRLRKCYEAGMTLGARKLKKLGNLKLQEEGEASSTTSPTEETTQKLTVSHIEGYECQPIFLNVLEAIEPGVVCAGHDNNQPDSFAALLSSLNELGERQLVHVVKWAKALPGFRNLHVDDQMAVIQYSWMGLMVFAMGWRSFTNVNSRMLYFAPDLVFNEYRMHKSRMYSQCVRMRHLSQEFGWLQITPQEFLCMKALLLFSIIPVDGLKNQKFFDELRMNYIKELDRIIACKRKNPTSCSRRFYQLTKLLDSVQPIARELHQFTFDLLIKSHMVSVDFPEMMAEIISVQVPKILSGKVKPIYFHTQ
Description: Inhibition of antagonist activity towards Androgen receptor

Glucocorticoid receptor [12] = biological target: T3, Glucocorticoid receptor; experiment: Inhibition of antagonist activity towards glucocorticoid receptor; not active; assay type: functional
[13] = biological target: T7, Glucocorticoid receptor (Homo sapiens) (UniProt P04150); experiment: Antagonist efficacy for glucocorticoid receptor; not active; assay type: functional
T7 sequence (whole entry): T3 sequence (P04150 whole entry)

[14] = biological target: T4, Mineralocorticoid receptor; experiment: Inhibition of antagonist activity towards mineralocorticoid receptor (hMR); assay type: functional
[15] = biological target: T5, Mineralocorticoid receptor (Homo sapiens); experiment: Antagonist efficacy for mineralocorticoid receptor (hMR); assay type: functional
Progesterone receptor [16] = biological target: T2, Progesterone receptor; experiment: Effective concentration for antagonistic activity towards human progesterone in CV-1 cells; assay type: functional, cell-based
[17] = biological target: T1, Progesterone receptor (Homo sapiens); experiment: Agonist efficacy for human progesterone in T47D human breast cancer cell; assay type: functional, cell-based
[18] = biological target: T1, Progesterone receptor (Homo sapiens); experiment: Antagonist efficacy for human progesterone in CV-1 cells; assay type: functional, cell-based
[19] = biological target: T1, Progesterone receptor (Homo sapiens); experiment: Antagonist efficacy for human progesterone in T47D human breast cancer cell; assay type: functional, cell-based
Progesterone receptor [20] = biological target: T2, Progesterone receptor; experiment: Effective concentration for human progesterone in T47D human breast cancer cell; assay type: cell-based, Cancer cell lines
Progesterone receptor [21] = biological target: T2, Progesterone receptor; experiment: Binding towards human progesterone receptor
Progesterone receptor [22] = biological target: T2, Progesterone receptor; experiment: Inhibition of human progesterone in T47D human breast cancer cell; assay type: cell-based

EC50 (Progesterone receptor [3]): 170 nM
EC50 (Progesterone receptor [7]): > 1000 nM
Ki (Progesterone receptor [4]): 86 nM
IC50 (Progesterone receptor [5]): 187 nM
Compound: COc1ccc2c(c1)-c1ccc3c(c1CO2)C(C)=CC(C)(C)N3

IC50 (Glucocorticoid receptor [8]): 1930 nM
Efficacy [9]: inactive
IC50 [10]: Not Active
Efficacy [11]: inactive
IC50 (Androgen receptor): 395 nM
EC50 (Progesterone receptor [3]): 45 nM
EC50 (Progesterone receptor [7]): 552 nM
Ki (Progesterone receptor [4]): 15 nM
IC50 (Progesterone receptor [5]): 485 nM
Compound: CC1=CC(C)(C)Nc2ccc3c(c21)COc1ccc(Br)cc1-3

IC50 (Glucocorticoid receptor [12]): Not Active
Efficacy [9]: inactive
Efficacy [13]: inactive
IC50 [14]: 3160 nM
Efficacy [15]: 30%
IC50 (Androgen receptor): 1250 nM
Compound: CC1=CC(C)(C)Nc2ccc3c(c21)COc1ccc(F)cc1-3

EC50 (Progesterone receptor [3]): 118 nM
EC50 (Progesterone receptor [7]): > 1000 nM
Ki (Progesterone receptor [4]): 248 nM
IC50 (Progesterone receptor [5]): 368 nM
Compound: CC1=CC(C)(C)Nc2ccc3c(c21)COc1c(F)cccc1-3

More lines, now with the values behind:

Compound: CC1=CC(C)(C)Nc2ccc3c(c21)COc1ccc(-c2ccccc2)cc1-3
Efficacy [1]: inactive
EC50 (Progesterone receptor [2]): Not Active
EC50 (Progesterone receptor [3]): 2030 nM
Ki (Progesterone receptor [4]): > 1000 nM
IC50 (Progesterone receptor [5]): 811 nM

Compound: Cc1cc(F)cc2c1OCc1c-2ccc2c1C(C)CC(C)(C)N2 (stereo not drawn)
Activity [6]: inactive
Activity [1]: inactive
EC50 (Progesterone receptor [3]): 637 nM
Ki (Progesterone receptor [4]): 391 nM
IC50 (Progesterone receptor [5]): 499 nM

Compound: CC1=CC(C)(C)Nc2ccc3c(c21)COc1c(C)cc(Cl)cc1-3
EC50 (Progesterone receptor [3]): 178 nM
Ki (Progesterone receptor [4]): 205 nM
IC50 (Progesterone receptor [5]): 374 nM

Compound: COc1ccc2c(c1)OCc1c-2ccc2c1C(C)=CC(C)(C)N2
EC50 (Progesterone receptor [16]): 193 nM
Efficacy [17]: 24%
Efficacy [18]: 85%
Efficacy [19]: 83%
EC50 (Progesterone receptor [20]): > 1000 nM
Ki (Progesterone receptor [21]): 357 nM
IC50 (Progesterone receptor [22]): 514 nM
